In PMC9226124, “Macrocycle-stabilization of its interaction with 14-3-3 increases plasma membrane localization and activity of CFTR” (Nature Communications, 2022):
Several values for one entry are separate records, joined by “and”; a condition that tells them apart may be missing. Identical values can stand only once.

Tests used:
[1] = biological target: T1, F508del-CFTR in BHK cells (Homo sapiens, UniProt P13569, DEL508-508); assay: FLIPR membrane potential (FMP) assay; assay type: cell-based, hamster; conditions: for FMP assay signal (Fig5c) / FMP assay signal (Fig5b): individual replicates
T1 construct: expressed in transfected cells; host or cells: baby hamster kidney (BHK) cells
T1 sequence (P13569 with tags, fused parts or gaps DEL508-508): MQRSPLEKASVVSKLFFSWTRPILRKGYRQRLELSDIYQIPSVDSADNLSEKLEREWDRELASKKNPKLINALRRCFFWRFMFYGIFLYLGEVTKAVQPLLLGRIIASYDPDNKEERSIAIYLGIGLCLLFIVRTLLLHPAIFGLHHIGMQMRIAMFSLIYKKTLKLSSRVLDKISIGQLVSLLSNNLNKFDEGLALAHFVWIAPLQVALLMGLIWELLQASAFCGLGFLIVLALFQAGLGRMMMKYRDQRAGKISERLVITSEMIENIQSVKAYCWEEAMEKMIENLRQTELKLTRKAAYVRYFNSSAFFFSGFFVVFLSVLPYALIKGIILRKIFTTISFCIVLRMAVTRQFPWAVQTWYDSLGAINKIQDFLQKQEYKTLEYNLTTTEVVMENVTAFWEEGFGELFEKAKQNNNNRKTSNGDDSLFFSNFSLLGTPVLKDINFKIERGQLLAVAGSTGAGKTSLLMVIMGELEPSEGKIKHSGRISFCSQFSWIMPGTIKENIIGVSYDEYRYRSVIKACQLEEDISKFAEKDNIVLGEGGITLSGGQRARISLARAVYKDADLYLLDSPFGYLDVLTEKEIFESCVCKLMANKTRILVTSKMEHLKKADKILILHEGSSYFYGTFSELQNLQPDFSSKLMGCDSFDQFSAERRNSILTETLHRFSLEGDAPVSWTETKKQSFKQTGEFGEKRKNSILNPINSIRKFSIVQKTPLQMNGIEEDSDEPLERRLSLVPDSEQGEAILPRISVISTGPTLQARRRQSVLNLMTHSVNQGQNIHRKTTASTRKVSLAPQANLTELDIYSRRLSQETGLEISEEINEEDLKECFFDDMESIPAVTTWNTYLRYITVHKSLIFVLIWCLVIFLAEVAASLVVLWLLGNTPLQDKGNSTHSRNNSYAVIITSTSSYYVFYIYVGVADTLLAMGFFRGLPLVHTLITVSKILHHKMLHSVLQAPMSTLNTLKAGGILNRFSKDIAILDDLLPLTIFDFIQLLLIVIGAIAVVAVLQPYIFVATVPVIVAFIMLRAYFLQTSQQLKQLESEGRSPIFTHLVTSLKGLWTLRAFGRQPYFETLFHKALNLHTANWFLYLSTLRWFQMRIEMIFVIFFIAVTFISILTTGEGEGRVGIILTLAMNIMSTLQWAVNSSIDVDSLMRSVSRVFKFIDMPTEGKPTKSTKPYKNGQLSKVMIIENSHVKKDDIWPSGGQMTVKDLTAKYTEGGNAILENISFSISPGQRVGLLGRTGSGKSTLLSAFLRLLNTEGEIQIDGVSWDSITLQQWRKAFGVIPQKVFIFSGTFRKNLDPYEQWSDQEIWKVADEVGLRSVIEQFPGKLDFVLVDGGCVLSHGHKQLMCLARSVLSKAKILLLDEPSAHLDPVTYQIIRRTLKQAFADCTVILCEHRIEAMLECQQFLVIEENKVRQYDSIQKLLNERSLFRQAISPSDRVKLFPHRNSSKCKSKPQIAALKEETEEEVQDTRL
Protocol: Twelve (12) validated hit compounds from the initial screening and focused validation library were tested for their effect on F508del-CFTR trafficking. Baby hamster kidney (BHK) cells expressing 3HA-tagged F508del-CFTR were treated for 24 h with 10 μM compound. After fixation of the cells, a combination of mouse monoclonal anti-HA antibody and anti-mouse IgG conjugated with FITC was used to detect F508del-CFTR that had trafficked to the plasma membrane as described previously. […] Additionally, a fluorescence imaging plate reader (FLIPR) Membrane Potential (FMP) assay was performed. This assay measures real-time membrane potential changes associated with ion channel activation and ion transporter proteins. F508del-CFTR expressing BHK cells were incubated for 24 h with 20 μM compound before treatment with the potentiator genistein, FMP dye, and activator forskolin. The fluorescence intensity is thus a measure for the function of the CFTR protein in the plasma membrane of these cells. The F508del-CFTR corrector VX-809 (lumacaftor) and the triple combination Trikafta® were used as positive controls in this assay. […] Another cellular assay was performed with the Ussing Chamber, which detects and quantifies transport of ions across epithelial tissue. F508del-CFTR expressing cystic fibrosis epithelial (CFBE) cells were treated for 18 h with 20 μM CY007424. After forskolin and genistein stimulation, the short-circuit current of the cells was measured.
Fig. 5 Cellular activity of macrocycles stabilizing the 14-3-3/CFTR PPI. a Surface expression of 3HA-tagged F508del-CFTR in BHK cells incubated for 24 h with 10 μM compound and treated with mouse monoclonal anti-HA antibody and anti-mouse IgG conjugated with FITC (n = 4 or n = 3 biological replicates, bars represent the mean). b, c FLIPR Membrane Potential (FMP) assay of F508del-CFTR expressing BHK cells treated for 24 h with the macrocycles (b, n = 6 biological replicates, bars represent the mean) or with CY007424 and/or VX-809 or Trikafta®, with and without CFTR inhibitor INH172 (c, n = 4 biological replicates, bars represent the mean). d Using chamber experiment of F508del-CFTR expressing CFBE cells treated for 18 h with CY007424, VX-809, or Trikafta® or in combinations. CFTR activity is assayed by measurement of short-circuit current of cells after stimulation by forskolin and the potentiator genistein (n = 3 or n = 6 biological replicates, bars represent the mean). Source data are provided as a Source Data file.
The FLuorescence Imaging Plate Reader (FLIPR) Membrane Potential (FMP) assay is based on the technique developed by Van Goor et al.[30] F508del-CFTR expressing baby hamster kidney (BHK) cells were incubated with the compounds for 24 h at 37 °C. The growth medium was removed from the cells by inverting the plate and FMP dye (Molecular Devices, Part #R8042) including the potentiator genistein (Sigma, G6649) was added back in 70 μl of low Cl^- containing buffer (160 mM NaGluconate, 4.5 mM KCl, 2 mM CaCl2, 1 mM MgCl2, 10 mM D-Glucose, 10 mM HEPES (pH7.4)). The plates were incubated for 5 min at RT before activation of CFTR in the plate reader (SynergyMX) with the addition of 14 µL of FMP dye in low Cl^- buffer containing 6x forskolin (Sigma, F6886) following a 2 min baseline read. Fluorescence intensity was monitored for 5 min following CFTR activation. Reported is the rate of fluorescence intensity change over time.

[2] = biological target: T2, FITC-labeled CFTRpS753pS768 peptide (no 14-3-3) (Homo sapiens, UniProt P13569); assay: Dose-response FP control assay in the absence of 14-3-3; assay type: binding; conditions: for FP signal: No 14-3-3; for Polarization in the absence of 14-3-3, background subtracted: replicates
T2 construct: made in house; host or cells: synthetic peptide
T2 sequence (P13569 747-774 limits assumed): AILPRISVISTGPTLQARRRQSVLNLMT
Protocol: The 14-3-3β concentration used for the FP screening assay was 10 μM (dashed line). c HTS FP assay of the Cyclenium library. The samples contain 100 nM of FITC-CFTR_pS753pS768 peptide, 10 μM 14-3-3β, and 50 μM compound. FC-A (100 µM) was added as a positive control and DMSO as the negative control. Hit compounds are defined as a polarization increase which is higher than 20% of the response of FC-A. Red squares are compounds that appeared positive in the negative control without 14-3-3. […] Background polarization was subtracted from all values, n = 3 technical replicates. Compounds selected for further analysis are indicated with an asterisk. e Polarization in the absence of 14-3-3. […] Source data are provided as a Source Data file.
The FITC-labeled peptides were dissolved in FP buffer (10 mM HEPES pH 7.4, 150 mM NaCl, 0.1% Tween20, 1 mg/mL BSA) to a final concentration of 100 nM or 10 nM. For the dose-response assays, a 14-3-3β concentration of 10 μM was used while titrating the compounds in a two-times dilution series and, for the other assays, a dilution series of 14-3-3β was made with constant concentration of compound. The dilution series were made in 384 Corning Black Round Bottom well plates and their polarization was measured with a Tecan Infinite F500 plate reader (ex. = 485 nm, em. = 535 nm). The method of fitting of the curves was: “log(agonist) vs. response – Variable slope (four parameters)” from GraphPad Prism. The equation is Y = Bottom + (Top-Bottom)/(1 + 10^((LogEC50-X)*HillSlope)).

FP signal ([2]; compound 476.8 pM) | FP signal ([2]; compound 953.7 pM) | FP signal ([2]; compound 1.90735e-9 M) | FP signal ([2]; compound 3.8147e-9 M) | FP signal ([2]; compound 7.6294e-9 M) | FP signal ([2]; compound 1.52588e-8 M) | FP signal ([2]; compound 3.05176e-8 M) | FP signal ([2]; compound 6.10352e-8 M) | FP signal ([2]; compound 1.2207e-7 M) | FP signal ([2]; compound 2.44141e-7 M) | FP signal ([2]; compound 4.88281e-7 M) | FP signal ([2]; compound 9.76563e-7 M) | FP signal ([2]; compound 1.95313e-6 M) | FP signal ([2]; compound 3.90625e-6 M) | FP signal ([2]; compound 7.8125e-6 M) | FP signal ([2]; compound 1.5625e-5 M) | FP signal ([2]; compound 3.125e-5 M) | FP signal ([2]; compound 6.25e-5 M) | FP signal ([2]; compound 0.000125 M) | Structure (SMILES) | FMP assay signal (Fig5b) [1] | further results
5 | 5 | 4 | 7 | 5 | 4 | 4 | 7 | 6 | 5 | 6 | 7 | 8 | 14 | 28 | 52 | 90 | 137 | 191 | NCCCC1NCc2ccccc2Sc2ccccc2CNC(=O)C(Cc2c[nH]c3ccccc23)NC(=O)C(Cc2ccccc2)NC1=O (stereo not drawn) [CY007345] | 99.75 and 93 and 100.071 and 96.107 and 84.214 and 89.179 | FP signal ([2]; compound 0.00025 M): 224; FP signal ([2]; compound 0.0005 M): 238; FP signal ([2]; compound 0.001 M): 248
1 | 3 | 2 | 5 | 5 | 4 | 6 | 6 | 3 | 4 | 4 | 5 | 5 | 6 | 10 | 13 | 24 | 59 | 124 | CC1NC(=O)C(CCCNC(=N)N)NC(=O)C2CCCN2Cc2cccc(c2)-c2ccccc2CNC(=O)C(CCCNC(=N)N)NC1=O (stereo not drawn) [CY007476] | 153.964 and 148.571 and 156.714 and 190.464 and 184.357 and 154.25 | CFTR function (FMP assay) ([1]; BHK cells, 24 h, 20 μM compound, genistein, forskolin): inactive; FP signal ([2]; compound 0.00025 M): 186; FP signal ([2]; compound 0.0005 M): 230; FP signal ([2]; compound 0.001 M): 257
3 | 3 | 4 | 4 | 3 | 5 | 4 | 5 | 4 | 4 | 5 | 6 | 6 | 6 | 7 | 9 | 16 | 33 | 73 | N=C(N)NCCCC1NC(=O)C(CCCCN)NCc2ccccc2Sc2ccccc2CNC(=O)C(Cc2ccc(O)cc2)NC1=O (stereo not drawn) [CY001951] | 112.821 and 82.214 and 93.607 and 85.25 and 102.571 and 92.764 | FP signal ([2]; compound 0.00025 M): 143; FP signal ([2]; compound 0.0005 M): 201; FP signal ([2]; compound 0.001 M): 252

More lines, now with the values behind:

Structure (SMILES) | FP signal ([2]; compound 476.8 pM) | FP signal ([2]; compound 953.7 pM) | FP signal ([2]; compound 1.90735e-9 M) | FP signal ([2]; compound 3.8147e-9 M) | FP signal ([2]; compound 7.6294e-9 M) | FP signal ([2]; compound 1.52588e-8 M) | FP signal ([2]; compound 3.05176e-8 M) | FP signal ([2]; compound 6.10352e-8 M) | FP signal ([2]; compound 1.2207e-7 M) | FP signal ([2]; compound 2.44141e-7 M) | FP signal ([2]; compound 4.88281e-7 M) | FP signal ([2]; compound 9.76563e-7 M) | FP signal ([2]; compound 1.95313e-6 M) | FP signal ([2]; compound 3.90625e-6 M) | FP signal ([2]; compound 7.8125e-6 M) | FP signal ([2]; compound 1.5625e-5 M) | FP signal ([2]; compound 3.125e-5 M) | FP signal ([2]; compound 6.25e-5 M) | FP signal ([2]; compound 0.000125 M) | FMP assay signal (Fig5b) [1] | further results
C=CC(C)(C)OC[C@H]1O[C@H](O[C@@H]2C3=C([C@H](C)COC(C)=O)C[C@H](O)[C@]3(C)/C=C3/[C@@H](COC)CC[C@H]3[C@@H](C)[C@H]2O)[C@H](O)[C@@H](OC(C)=O)[C@@H]1O [FC-A, fusicoccin A, reference compound] | 1 | 5 | 0 | 3 | 3 | 2 | 2 | 1 | 1 | 2 | 4 | 5 | 6 | 15 | 23 | 37 | 53 | 70 | 91 | 224.714 and 247.893 and 215.429 and 224.357 and 209.61 and 238.08 | FMP assay signal (Fig5c) ([1]; Compound alone): 170.429 and 204.929 and 173.75 and 189.679; FMP assay signal (Fig5c) ([1]; With CFTR-inh172): 23.571 and 18.107 and 23.429 and 27.536; FP signal ([2]; compound 0.00025 M): 104; FP signal ([2]; compound 0.0005 M): 116; FP signal ([2]; compound 0.001 M): 133; Polarization in the absence of 14-3-3, background subtracted ([2]; compound 7.8125e-7 M): 1.367 and 0.6667 and -0.1333; Polarization in the absence of 14-3-3, background subtracted ([2]; compound 1.5625e-6 M): 0.1667 and 0.6667 and 0.3667; Polarization in the absence of 14-3-3, background subtracted ([2]; compound 3.125e-6 M): 0.06667 and -0.03333 and 0.6667; Polarization in the absence of 14-3-3, background subtracted ([2]; compound 6.25e-6 M): 0.06667 and -0.2333 and -0.3333; Polarization in the absence of 14-3-3, background subtracted ([2]; compound 1.25e-5 M): 0.5667 and 0.6667 (2×); Polarization in the absence of 14-3-3, background subtracted ([2]; compound 2.5e-5 M): -0.03333 and 0.6667 and 0.8667; Polarization in the absence of 14-3-3, background subtracted ([2]; compound 5e-5 M): 1.667 and 1.067 and 1.267; Polarization in the absence of 14-3-3, background subtracted ([2]; compound 0.0001 M): 1.667 and 1.167 and 2.267
N=C(N)NCCCC1NC(=O)C(CCC(N)=O)NC(=O)C(CCCNC(=N)N)NC(=O)C2CCCN2Cc2cccc(c2)-c2ccccc2CNC1=O (stereo not drawn) [CY007455] | 5 | 6 | 3 | 4 | 5 | 4 | 4 | 5 | 7 | 6 | 4 | 4 | 5 | 9 | 8 | 15 | 26 | 53 | 107 | 35.786 and 28.786 and 56.25 and 44.357 and 64.929 and 56.893 | FP signal ([2]; compound 0.00025 M): 170; FP signal ([2]; compound 0.0005 M): 209; FP signal ([2]; compound 0.001 M): 244
